Reference: ChEMBL document CHEMBL4004838, “Design and synthesis of novel phenyl -1, 4-beta-carboline-hybrid molecules as potential anticancer agents” (Eur J Med Chem, 2017)
Active and inactive are the calls of the source. The calls are words filed in the database; no cut-off is given here.

What was measured:
[1] = system: OVCAR-5; experiment: Growth inhibition of human OVCAR5 cells incubated for 48 hrs by sulforhodamine B assay; assay type: functional; details: OVCAR-5, 48 h
[2] = system: EKVX; experiment: Growth inhibition of human EKVX cells assessed as cell growth at 1 uM incubated for 48 hrs by sulforhodamine B assay relative to control; assay type: functional; details: read-out: Activity
[3] = system: UACC-62; experiment: Growth inhibition of human UACC62 cells assessed as cell growth at 1 uM incubated for 48 hrs by sulforhodamine B assay relative to control; assay type: functional; details: UACC-62, 48 h, read-out: Activity
[4] = system: K562; experiment: Growth inhibition of human K562 cells assessed as cell growth at 0.01 uM incubated for 48 hrs by sulforhodamine B assay relative to control; assay type: functional; details: K562, 48 h, read-out: Activity
[5] = system: UO-31; experiment: Growth inhibition of human UO31 cells incubated for 48 hrs by sulforhodamine B assay; assay type: functional; details: UO-31, 48 h
[6] = system: SF-295; experiment: Growth inhibition of human SF295 cells assessed as cell growth at 1 uM incubated for 48 hrs by sulforhodamine B assay relative to control; assay type: functional; details: SF-295, 48 h, read-out: Activity
[7] = system: UACC-62; experiment: Growth inhibition of human UACC62 cells assessed as cell growth at 0.1 uM incubated for 48 hrs by sulforhodamine B assay relative to control; assay type: functional; details: UACC-62, 48 h, read-out: Activity
[8] = system: U-251; experiment: Growth inhibition of human U251 cells assessed as cell growth at 1 uM incubated for 48 hrs by sulforhodamine B assay relative to control; assay type: functional; details: U-251, 48 h, read-out: Activity
[9] = system: DU-145; experiment: Growth inhibition of human DU145 cells assessed as cell growth at 0.01 uM incubated for 48 hrs by sulforhodamine B assay relative to control; assay type: functional; details: DU-145, 48 h, read-out: Activity
[10] = system: NCI-H460; experiment: Growth inhibition of human NCI-H460 cells assessed as cell growth at 0.1 uM incubated for 48 hrs by sulforhodamine B assay relative to control; assay type: functional; details: NCI-H460, 48 h, read-out: Activity
[11] = system: NCI-H23; experiment: Growth inhibition of human NCI-H23 cells assessed as cell growth at 0.1 uM incubated for 48 hrs by sulforhodamine B assay relative to control; assay type: functional; details: NCI-H23, 48 h, read-out: Activity
[12] = system: SF-268; experiment: Growth inhibition of human SF268 cells assessed as cell growth at 0.1 uM incubated for 48 hrs by sulforhodamine B assay relative to control; assay type: functional; details: SF-268, 48 h, read-out: Activity
[13] = system: KM12; experiment: Growth inhibition of human KM12 cells incubated for 48 hrs by sulforhodamine B assay; assay type: functional; details: KM12, 48 h
[14] = system: K562; experiment: Growth inhibition of human K562 cells incubated for 48 hrs by sulforhodamine B assay; assay type: functional; details: K562, 48 h
[15] = system: Malme-3M; experiment: Growth inhibition of human MALME-3M cells assessed as cell growth at 1 uM incubated for 48 hrs by sulforhodamine B assay relative to control; assay type: functional; details: read-out: Activity
[16] = species: Bos taurus; experiment: Induction of calf thymus DNA intercalation assessed as compound-DNA complex formation at 5 uM incubated for 1 hr by ethidium bromide staining based agarose gel electrophoresis relative to control
[17] = system: OVCAR-4; experiment: Growth inhibition of human OVCAR4 cells assessed as cell growth at 0.01 uM incubated for 48 hrs by sulforhodamine B assay relative to control; assay type: functional; details: OVCAR-4, 48 h, read-out: Activity
[18] = system: UO-31; experiment: Growth inhibition of human UO31 cells assessed as cell growth at 1 uM incubated for 48 hrs by sulforhodamine B assay relative to control; assay type: functional; details: UO-31, 48 h, read-out: Activity
[19] = system: HCC 2998; experiment: Growth inhibition of human HCC2998 cells assessed as cell growth at 100 uM incubated for 48 hrs by sulforhodamine B assay relative to control; assay type: functional; details: HCC 2998, 48 h, read-out: Activity
[20] = system: SNB-19; experiment: Growth inhibition of human SNB19 cells assessed as cell growth at 0.01 uM incubated for 48 hrs by sulforhodamine B assay relative to control; assay type: functional; details: SNB-19, 48 h, read-out: Activity
[21] = system: T47D; experiment: Growth inhibition of human T47D cells assessed as cell growth at 1 uM incubated for 48 hrs by sulforhodamine B assay relative to control; assay type: functional; details: read-out: Activity
[22] = system: MDA-MB-468; experiment: Growth inhibition of human MDA-MB-468 cells assessed as cell growth at 0.01 uM incubated for 48 hrs by sulforhodamine B assay relative to control; assay type: functional; details: MDA-MB-468, 48 h, read-out: Activity
[23] = system: MDA-MB-435; experiment: Growth inhibition of human MDA-MB-435 cells assessed as cell growth at 0.01 uM incubated for 48 hrs by sulforhodamine B assay relative to control; assay type: functional; details: MDA-MB-435, 48 h, read-out: Activity
[24] = system: K562; experiment: Growth inhibition of human K562 cells assessed as cell growth at 1 uM incubated for 48 hrs by sulforhodamine B assay relative to control; assay type: functional; details: K562, 48 h, read-out: Activity
[25] = system: NCI-H23; experiment: Growth inhibition of human NCI-H23 cells assessed as cell growth at 0.01 uM incubated for 48 hrs by sulforhodamine B assay relative to control; assay type: functional; details: NCI-H23, 48 h, read-out: Activity
[26] = system: EKVX; experiment: Growth inhibition of human EKVX cells assessed as cell growth at 0.01 uM incubated for 48 hrs by sulforhodamine B assay relative to control; assay type: functional; details: read-out: Activity
[27] = system: HCC 2998; experiment: Growth inhibition of human HCC2998 cells assessed as cell growth at 0.1 uM incubated for 48 hrs by sulforhodamine B assay relative to control; assay type: functional; details: HCC 2998, 48 h, read-out: Activity
[28] = system: MCF7; experiment: Growth inhibition of human MCF7 cells assessed as cell growth at 100 uM incubated for 48 hrs by sulforhodamine B assay relative to control; assay type: functional; details: MCF7, 48 h, read-out: Activity
[29] = system: RPMI-8226; experiment: Growth inhibition of human RPMI8226 cells assessed as cell growth at 0.01 uM incubated for 48 hrs by sulforhodamine B assay relative to control; assay type: functional; details: RPMI-8226, 48 h, read-out: Activity
[30] = system: SF-268; experiment: Growth inhibition of human SF268 cells assessed as cell growth at 0.01 uM incubated for 48 hrs by sulforhodamine B assay relative to control; assay type: functional; details: SF-268, 48 h, read-out: Activity
[31] = system: Malme-3M; experiment: Growth inhibition of human MALME-3M cells assessed as cell growth at 0.01 uM incubated for 48 hrs by sulforhodamine B assay relative to control; assay type: functional; details: read-out: Activity
[32] = system: SK-MEL-5; experiment: Growth inhibition of human SK-MEL-5 cells assessed as cell growth at 0.01 uM incubated for 48 hrs by sulforhodamine B assay relative to control; assay type: functional; details: SK-MEL-5, 48 h, read-out: Activity
[33] = read-out: LC50 (the source's name)
[34] = read-out: pLC50 (the source's name) (converted)

c1ccc2c3c([nH]c2c1)C(c1ccc(C2NCCc4c2[nH]c2ccccc42)cc1)NCC3 (racemic)
GI50 ([1]; read-out: GI50): 1800 nM
CC50 [1, 33]: 9.65 µM
TGI ([1]; read-out: TGI): 4.17 µM
GI50 ([1]; read-out: pGI50 (converted)): 1820 nM
CC50 [1, 34]: 9.55 µM
TGI ([1]; read-out: pTGI (converted)): 4.17 µM
growth at 1 µM [2]: 70%
growth at 1 µM [3]: 43%
growth at 0.01 µM [4]: 113%
GI50 ([5]; read-out: GI50): 1040 nM
CC50 [5, 33]: 4.92 µM
TGI ([5]; read-out: TGI): 2260 nM
GI50 ([5]; read-out: pGI50 (converted)): 1050 nM
CC50 [5, 34]: 4.9 µM
TGI ([5]; read-out: pTGI (converted)): 2240 nM
growth at 1 µM [6]: 84%
growth at 0.1 µM [7]: 99%
growth at 1 µM [8]: 4%
growth at 0.01 µM [9]: 100%
growth at 0.1 µM [10]: 106%
growth at 0.1 µM [11]: 88%
growth at 0.1 µM [12]: 89%
GI50 ([13]; read-out: GI50): 1070 nM
TGI ([13]; read-out: TGI): 2360 nM
GI50 ([13]; read-out: pGI50 (converted)): 1070 nM
TGI ([13]; read-out: pTGI (converted)): 2340 nM
GI50 ([14]; read-out: GI50): 2440 nM
CC50 [14, 33]: 9.75 µM
TGI ([14]; read-out: TGI): 4.88 µM
GI50 ([14]; read-out: pGI50 (converted)): 245 nM
CC50 [14, 34]: 0.977 µM
TGI ([14]; read-out: pTGI (converted)): 4.9 µM
growth at 1 µM [15]: 82%
Activity [16]: Active
growth at 0.01 µM [17]: 88%
growth at 1 µM [18]: 52%
growth at 100 µM [19]: 84%
growth at 0.01 µM [20]: 97%
growth at 1 µM [21]: 66%
growth at 0.01 µM [22]: 95%
growth at 0.01 µM [23]: 95%
growth at 1 µM [24]: 52%
growth at 0.01 µM [25]: 95%
growth at 0.01 µM [26]: 88%
growth at 0.1 µM [27]: 81%
growth at 100 µM [28]: -74%
growth at 0.01 µM [29]: 102%
growth at 0.01 µM [30]: 92%
growth at 0.01 µM [31]: 89%
growth at 0.01 µM [32]: 99%
